Where “and” joins values, the source holds several entries; their conditions need not be identical. Identical values can stand only once.
Experiments:
[1] = Pharmacokinetics in rats (LC-MS/MS, WinNonlin); conditions: for MRT inf: MRT(0-∞); for Cmax: C max; for Tmax: T max
Protocol: Whole blood was taken into heparinized tubes at predefined time points (2, 5, 10, 20, and 30 min, and 1, 2, 4, 6, 8, and 12 h) after administration, and plasma was separated by centrifugation and stored at −20°C until testing. […] Whole blood was taken into heparinized tubes at predefined time points (2, 5, 10, 20, and 30 min, and 1, 2, 4, 6, 8, and 12 h) after administration, and plasma was separated by centrifugation and stored at −20°C until testing. […] Pharmacokinetic parameters were calculated by using the pharmacokinetics software WinNonlin 8.1.

OAT1 [2] = assay: OAT1 protein expression in HK-2 cells (Western blot); conditions: HK-2; 阳性 = allopurinol 100 µmol/L; replicates 1-3
OAT3 [3] = assay: OAT3 protein expression in HK-2 cells (Western blot); conditions: HK-2; 阳性 = allopurinol 100 µmol/L; replicates 1-3
OAT1 [4] = assay: OAT1 protein expression in kidney of HUA mice (Western blot); conditions: allopurinol 10 mg/kg, p > 0.05
XOD [5] = test system: XOD
OAT3 [6] = assay: OAT3 protein expression in kidney of HUA mice (Western blot); conditions: allopurinol 10 mg/kg, p > 0.05
XOD [7] = conditions: HUA cell model; allopurinol 100 μmol/L; vs model; p < 0.001
ASC = ASC protein expression in HK-2 cells (Western blot); conditions: HK-2; 阳性 = allopurinol 100 µmol/L; replicates 1-3
GLUT9 [8] = assay: GLUT9 protein expression in kidney of HUA mice (Western blot); format: in vivo; conditions: allopurinol 10 mg/kg, p > 0.05
GLUT9 [9] = assay: GLUT9 protein expression in HK-2 cells (Western blot); conditions: HK-2; 阳性 = allopurinol 100 µmol/L; replicates 1-3
Caspase-1 = Caspase-1 protein expression in HK-2 cells (Western blot); conditions: HK-2; 阳性 = allopurinol 100 µmol/L; replicates 1-3
NLRP3 = NLRP3 protein expression in HK-2 cells (Western blot); conditions: HK-2; 阳性 = allopurinol 100 µmol/L; replicates 1-3
[10] = Sprague-Dawley, rat, plasma, iv, 5 mg/kg, rats, allopurinol intravenous 5 mg/kg, Average
[11] = Sprague-Dawley, rat, plasma, iv, 5 mg/kg, rats, allopurinol intravenous 5 mg/kg, individual rats
[12] = Sprague-Dawley, rat, plasma, po, 50 mg/kg, rats, allopurinol gavage 50 mg/kg, Average
[13] = Sprague-Dawley, rat, plasma, po, 50 mg/kg, rats, allopurinol gavage 50 mg/kg, individual rats
[14] = rats, allopurinol gavage 50 mg/kg, individual rats, 50 mg/kg
[15] = rats, allopurinol intravenous 5 mg/kg, individual rats, 5 mg/kg

Oc1ncnc2[nH]ncc12 [allopurinol]
AUC(0-t) ([1]; Sprague-Dawley, rat, plasma, iv, 5 mg/kg, AUC(0-t), rats, allopurinol intravenous 5 mg/kg, Average): 179 ng·h/mL
AUC(0-inf) [1, 10]: 209 ng·h/mL
AUC(0-inf) [1, 11]: 170 ng·h/mL
C0 ([1]; Sprague-Dawley, rat, plasma, iv, 5 mg/kg, C 0, rats, allopurinol intravenous 5 mg/kg, Average): ~225 ng/mL
C0 ([1]; Sprague-Dawley, rat, plasma, iv, 5 mg/kg, C 0, rats, allopurinol intravenous 5 mg/kg, individual rats): 169 ng/mL
MRT inf [1, 10]: 0.79 h
MRT inf [1, 11]: 0.73 h
bioavailability ([1]; Sprague-Dawley, rat, plasma, oral, F (absolute bioavailability), rats, allopurinol gavage 50 mg/kg vs intravenous 5 mg/kg): ~314%
AUC(0-t) ([1]; Sprague-Dawley, rat, plasma, po, 50 mg/kg, AUC(0-t), rats, allopurinol gavage 50 mg/kg, Average): 6470 ng·h/mL
AUC(0-t) ([1]; Sprague-Dawley, rat, plasma, po, 50 mg/kg, AUC(0-t), rats, allopurinol gavage 50 mg/kg, individual rats): 6290 ng·h/mL
AUC(0-inf) [1, 12]: ~6580 ng·h/mL
AUC(0-inf) [1, 13]: 6430 ng·h/mL
Cmax [1, 12]: ~1350 ng/mL
Cmax [1, 13]: 1310 ng/mL
MRT inf [1, 12]: 2.5 h
MRT inf [1, 13]: 2.06 h
Tmax [1, 12]: 1 to 2 h
Tmax [1, 13]: 2 h
V/F ([1]; rats, allopurinol gavage 50 mg/kg, Average): 14.28 L/kg
T max ([1]; rats, allopurinol gavage 50 mg/kg, Average, 50 mg/kg): 1.33 h
AUC(0-t) [1, 14]: 6,239.00 h·µg/L and 6,870.26 h·µg/L
AUC(0-∞) [1, 14]: 6,374.71 h·µg/L and 6,922.57 h·µg/L
C max [1, 14]: 1,440.00 µg/L and 1,310.00 µg/L
MRT(0-∞) [1, 14]: 2.68 h and 2.75 h
V/F [1, 14]: 15.75 L/kg and 15.77 L/kg and 11.31 L/kg
V ([1]; rats, allopurinol intravenous 5 mg/kg, Average): 19.62 L/kg
AUC(0-t) [1, 15]: 186.21 ng·h/mL and 225.15 ng·h/mL
AUC(0-∞) [1, 15]: 207.21 µg·h/L and 250.23 µg·h/L
C0 [1, 15]: 223.22 ng/mL and 281.70 ng/mL
MRT(0-∞) [1, 15]: 0.81 h and 0.83 h
V [1, 15]: 20.68 L/kg and 20.60 L/kg and 17.58 L/kg
OAT1 protein expression, band value (OAT1 [2]): 174.983 and 217.222 and 169.712
OAT3 protein expression, band value (OAT3 [3]): 160.43 and 183.946
OAT1 protein expression in kidney (OAT1 [4]): did not show significant effects
xod protein expression, band value (XOD [5]; AML12, 阳性 = allopurinol 100 µmol/L, replicates 1-3): 155.965 and 209.523 and 140.271
XOD protein expression in AML12 cells (XOD [5]; HUA cell model, allopurinol 100 µmol/L, vs model group): significantly downregulate
OAT3 protein expression in kidney (OAT3 [6]): did not show significant effects
XOD activity in AML12 cells (XOD [7]): significantly downregulate
asc protein expression, band value (ASC): 163.648 and 185.065 and 186.261
GLUT9 protein expression in kidney (GLUT9 [8]): did not show significant effects
GLUT (GLUT9) protein expression, band value (GLUT9 [9]): 146.392 and 138.006 and 144.372
CASPASE protein expression, band value (Caspase-1): 147.442 and 190.729 and 189.372
NLRP3 protein expression, band value (NLRP3): 163.939 and 177.621 and 186.105
